From ChEMBL document CHEMBL1671726 (Antimicrob Agents Chemother, 2010)

Tests used:
Assay in all cases: microbe, parasite or virus in culture
Plasmodium falciparum [1] = settings: F07-7, 72 h
Plasmodium falciparum [2] = settings: F07-23, 72 h
Plasmodium falciparum [3] = settings: F08B53, 72 h
Plasmodium falciparum [4] = settings: F07-13, 72 h
Plasmodium falciparum [5] = settings: F09A54, 72 h
Plasmodium falciparum [6] = settings: F09A55, 72 h
Plasmodium falciparum [7] = settings: F09A9, 72 h
Plasmodium falciparum [8] = settings: F07-3, 72 h
Plasmodium falciparum [9] = settings: F07-46, 72 h
Plasmodium falciparum [10] = settings: F09N35, 72 h
Plasmodium falciparum [11] = settings: F09N58, 72 h
Plasmodium falciparum [12] = settings: F09N66, 72 h
Plasmodium falciparum [13] = settings: F07-8, 72 h
Plasmodium falciparum [14] = settings: F07-28, 72 h
Plasmodium falciparum [15] = settings: F07-31, 72 h
Plasmodium falciparum [16] = settings: F07-35, 72 h
Plasmodium falciparum [17] = settings: F07-42, 72 h
Plasmodium falciparum [18] = settings: F08B2, 72 h
Plasmodium falciparum [19] = settings: F08B9, 72 h
Plasmodium falciparum [20] = settings: F08B27, 72 h
Plasmodium falciparum [21] = settings: F08B41, 72 h
Plasmodium falciparum [22] = settings: F08B61, 72 h
Plasmodium falciparum [23] = settings: F09A10, 72 h
Plasmodium falciparum [24] = settings: F09A41, 72 h
Plasmodium falciparum [25] = settings: F09A61, 72 h
Plasmodium falciparum [26] = settings: F09N6, 72 h
Plasmodium falciparum [27] = settings: F09N29, 72 h
Plasmodium falciparum [28] = settings: F09N40, 72 h
Plasmodium falciparum [29] = settings: F09N64, 72 h
Plasmodium falciparum [30] = settings: F08B7, 72 h
Plasmodium falciparum [31] = settings: F08B40, 72 h
Plasmodium falciparum [32] = settings: W2, 72 h
Plasmodium falciparum [33] = settings: K1, 72 h
Plasmodium falciparum [34] = settings: 72 h
Description: Antimicrobial activity against Plasmodium falciparum harboring pfnhe1 ms4760 haplotype 9 carrying 3 copies of DNNND repeat and His/Asp ratio 7:6 infected in human erythrocytes after 72 hrs by SYBR green I-based fluorescence assay

Plasmodium falciparum [35] = settings: 72 h; remark: listed apart in the source
Description: Antimicrobial activity against Plasmodium falciparum harboring pfnhe1 ms4760 haplotype 35 carrying 1 copy of DNNND repeat and His/Asp ratio 5:2 infected in human erythrocytes after 72 hrs by SYBR green I-based fluorescence assay

Plasmodium falciparum [36] = settings: 72 h; remark: listed apart in the source
Description: Antimicrobial activity against Plasmodium falciparum harboring pfnhe1 ms4760 haplotype 3 carrying 1 copy of DNNND repeat and His/Asp ratio 6:2 infected in human erythrocytes after 72 hrs by SYBR green I-based fluorescence assay

C=C[C@H]1CN2CC[C@H]1C[C@H]2[C@H](O)c1ccnc2ccc(OC)cc12 [QUININE]
IC50 (Plasmodium falciparum [1]): 456 nM | IC50 (Plasmodium falciparum [2]): 447 nM | IC50 (Plasmodium falciparum [3]): 468 nM | IC50 (Plasmodium falciparum [4]): 365 nM | IC50 (Plasmodium falciparum [5]): 243 nM | IC50 (Plasmodium falciparum [6]): 149 nM | IC50 (Plasmodium falciparum [7]): 562 nM | IC50 (Plasmodium falciparum [8]): 875 nM | IC50 (Plasmodium falciparum [9]): 894 nM | IC50 (Plasmodium falciparum [10]): 905 nM | IC50 (Plasmodium falciparum [11]): 448 nM | IC50 (Plasmodium falciparum [12]): 711 nM | IC50 (Plasmodium falciparum [13]): 874 nM | IC50 (Plasmodium falciparum [14]): 473 nM | IC50 (Plasmodium falciparum [15]): 433 nM | IC50 (Plasmodium falciparum [16]): 821 nM | IC50 (Plasmodium falciparum [17]): 388 nM | IC50 (Plasmodium falciparum [18]): 1020 nM | IC50 (Plasmodium falciparum [19]): 218 nM | IC50 (Plasmodium falciparum [20]): 870 nM | IC50 (Plasmodium falciparum [21]): 886 nM | IC50 (Plasmodium falciparum [22]): 1130 nM | IC50 (Plasmodium falciparum [23]): 716 nM | IC50 (Plasmodium falciparum [24]): 1300 nM | IC50 (Plasmodium falciparum [25]): 373 nM | IC50 (Plasmodium falciparum [26]): 710 nM | IC50 (Plasmodium falciparum [27]): 853 nM | IC50 (Plasmodium falciparum [28]): 2120 nM | IC50 (Plasmodium falciparum [29]): 475 nM | IC50 (Plasmodium falciparum [30]): 1100 nM | IC50 (Plasmodium falciparum [31]): 260 nM | IC50 (Plasmodium falciparum [32]): 720 nM | IC50 (Plasmodium falciparum [33]): 407 nM | IC50 (Plasmodium falciparum [34]): 837 nM | IC50 (Plasmodium falciparum [35]): 260 nM | IC50 (Plasmodium falciparum [36]): 223 nM
